In a melting point compilation (Tetko et al.; mined from patent text by program, amines drawn as free bases though some values may be those of a salt):

Row | melting point | Compound
1 | 168 to 170 °C | CC(C)OC(=O)c1cn(Cc2c(F)cccc2F)c2nc(-c3ccc(N)cc3)c(CN(C)Cc3ccccc3)n2c1=O
2 | 101 °C | CCCCCC1CCc2c(c(F)c(F)c3oc(C4CCC(CCC)CC4)cc23)O1 (stereo unspecified)
3 | 73 to 74 °C | O=C1CC2C(CC(OC(=O)c3ccccc3)C2C=CC(O)C2(F)CCCC2)O1 (stereo unspecified)
4 | 56.5 to 59 °C | COC(=O)c1ccc(OCCCCl)cc1
5 | 124 to 125 °C | Oc1ccc(-c2nn(C3CCC3)c3c(C(F)(F)F)cccc23)c(O)c1
6 | 232 to 235 °C | O=C(O)c1ccc2c(CCNCc3cccc(OCC(F)(F)F)c3)c[nH]c2c1
7 | 152 °C | CC(C)(C)N(Cc1ccccc1)NC(=O)c1ccco1
8 | 107 to 108 °C | C=C1CC(COc2cccc3cccnc23)(c2ccc(Cl)cc2)OC1=O (stereo unspecified)
9 | 216 to 217 °C | COc1nccc(Oc2ccc(NC(=O)c3cc(F)cc(N4CCOCC4)c3)c3ccccc23)n1
10 | 138 to 140 °C | N#Cc1cnc2c(oc3ccccc32)c1Oc1ccc(Cl)cc1F
11 | 78 to 79 °C | CC(=O)SCc1ccc([N+](=O)[O-])cc1[N+](=O)[O-]
12 | 114 to 115 °C | Cc1ccccc1C(=O)Nc1cccc(OCc2ccccc2)c1
13 | 201 to 203 °C | COc1cc(OC)nc(NC(=O)N=NS(=O)(=O)C2N(C)C=CN2C)n1
14 | 82 to 83 °C | COc1ccc(C2CCc3ccccc3O2)cc1 (stereo unspecified)
15 | 104 to 105 °C | CS(=O)(=O)c1ccc(Oc2cc(OCC3CCOCC3)c3[nH]c(C4=NCC(CCO)S4)cc3c2)cc1 (stereo unspecified)
16 | 134 to 136 °C | COC(=O)c1cc(Cl)c(NC(C)=O)cc1OC(C)=O
17 | 93 to 95 °C | COc1ccc(C(C#N)=C(C)C)cc1OC
18 | 186 to 189 °C | CC(=O)Nc1ccc(C(=O)N2CC3CNCC(C3)C2)cc1
19 | 193 to 194 °C | CCc1ccnc(C(=O)c2[nH]c3cc(Cl)ccc3c2CC(=O)O)c1F
20 | 112 to 115 °C | CCCCCCCCCCCCCCCCCCNC(=O)OCC(CNS(=O)(=O)CCCCl)NC(=O)OC(C)(C)C (stereo unspecified)
21 | 243 to 245 °C | Cc1cc(C=Cc2ccc(-c3ccc(C(F)(F)F)cc3)cc2)ccc1OCC(=O)O
22 | 202 to 204 °C | CC(=O)N[C@@H]1CN(C(=O)c2nn(C)c3ccccc23)C[C@@H]1C (relative stereo)
23 | 247 °C | CC12CCC(C(=O)O)=CC1=CCC1C2CCC2(C)C(C(=O)CCC3CCCCC3)CCC12 (stereo unspecified)
24 | 155 to 157 °C | O=C(NCCC1OCCO1)c1cc(Br)c(Br)[nH]1
25 | 137 to 142 °C | CN(C)C(=O)N1C[C@@H](O)[C@H](Oc2ccc(Cl)cc2)C1 (relative stereo)

Row | melting point | Compound
26 | 130 to 132 °C | CC(CCCC(C)(C)OC1CCCCO1)C1CCC2C3CC=C4CC(O)CC(O)C4(C)C3CCC12C (stereo unspecified)
27 | 151 to 156 °C | CC(C)C(=O)C(=Cc1cc(O)c(O)c([N+](=O)[O-])c1)c1ccccc1
28 | 198 to 200 °C | C/C(=C\C(N)=O)c1ccc2c(c1)C(C)(C)OC(=O)N2
29 | 95 to 96 °C | CN(C)CCOc1ccc(C=NO)cc1
30 | 204 to 205 °C | CCCC1(C)C(C#N)C(=O)NC(=O)C1C#N (stereo unspecified)
31 | 72 to 75 °C | NC(=O)N(O)CCOCc1ccco1
32 | 169 to 170 °C | O=C1Nc2ccccc2C1C(=O)c1cccnc1 (stereo unspecified)
33 | 168 to 171 °C | CC(CN1CCCCC1)Nc1ccnc2cc(Cl)ccc12 (racemic)
34 | 135 to 136 °C | C=CCNC(=O)Nc1ccc([N+](=O)[O-])cc1O
35 | 196 to 198 °C | CSc1ccc(-c2nc(SC)c(C#N)c(=O)n2-c2ccc(C)cc2)cc1
36 | 151 to 152 °C | Cc1noc(C)c1C(=O)Nc1ccc(-n2nccc2C)cc1
37 | 200 to 202 °C | COC(=O)Cn1c(=O)n(C)c(=O)n(-c2cc(Oc3c(Cl)ccc(C)c3Cl)ccc2[N+](=O)[O-])c1=O
38 | 163 to 165 °C | O=CN1CCN(c2nc(Cl)nc(Cl)n2)CC1
39 | 97 to 98 °C | CN1CCN(C(=O)C(C)(C)OCc2nn(Cc3ccccc3)c3ccccc23)CC1
40 | 186 to 187 °C | Cc1cccc(C)c1Nc1c(-c2c(Cl)cccc2OCC(N)=O)nc2ccc(F)cn12
41 | 147 to 150 °C | COc1c(C)c(C)c(OC)c([N+](=O)[O-])c1[N+](=O)[O-]
42 | 268 to 269 °C | N#Cc1ccc(-c2nc(-c3ccc(F)cc3)c(-c3ccncc3)[nH]2)cc1
43 | 89 to 90 °C | C=C(C)C(=O)OCCCCOC(=O)/C=C/c1ccc(OC(=O)c2ccc(OC)cc2)cc1
44 | 151 to 153 °C | COCCc1nc2c(N)nc3c(c2n1CCOCCNS(C)(=O)=O)CCCC3
45 | 88 to 89 °C | N#CC(C#N)=C1N(CCCN2CCCCC2)CCN1CCN1CCCCC1
46 | 193 to 195 °C | O=C(O)CON=C1CCCc2cc(OCCn3ccnc3)ccc21
47 | 210 to 212 °C | CNC(=O)c1ccccc1Nc1nc(Nc2cc3c(cc2OC)N(C)C(=O)OCC3)ncc1C(F)(F)F
48 | 88 to 100 °C | CCOC(=O)c1cccc(-c2ccc3c(c2)C(O)CCC3)c1 (stereo unspecified)
49 | 198 to 199 °C | COc1ccc2c(c1)Sc1cc(C#N)ccc1N2
50 | 212 °C | COC1(c2cccc3[nH]ccc23)CCCNC1 (stereo unspecified)

Row | melting point | Compound
51 | 97 to 99 °C | NS(=O)(=O)c1ccc(CCC(=O)O)cc1
52 | 132 to 134 °C | CCOC=C1C(=O)N(c2cccc(Cl)c2)c2ccccc21
53 | 112 to 114 °C | CCN(CC)c1cccc(N(CC)CC)c1C(=O)O
54 | 127 to 129 °C | CCCCN(C)C(=O)c1ccc(S(=O)(=O)CCCn2c(CCC)nc3c(N)nc(C)c(C)c32)cc1
55 | 141 to 142 °C | CC(C)Nc1c(C#N)cnn1-c1ccc(Cl)c(Cl)c1Cl
56 | 134 to 135 °C | O=C(CCc1cccnc1)NCCCCC1CCN(P(=O)(c2ccccc2)c2ccccc2)CC1
57 | 206 °C | Cc1cc(-c2ccc(Cl)c(Cl)c2)nc(-c2cccc(-c3cccc(S(N)(=O)=O)c3)c2)n1
58 | 156 to 161 °C | COc1ccc(CN(C)CCCc2ccc(NC(=O)c3[nH]c4ccccc4c3C(=O)c3ccccc3)cc2)cc1OC
59 | 227 °C | O=C(Nc1ccccc1)N1CC2(CN1)CNN(C(=O)Nc1ccccc1)C2
60 | 138 to 140 °C | O=C(C[C@H](C(=O)N[C@H](COC(=O)OCc1ccccc1)c1ccccc1)n1ccc(-c2ccc(-c3ccncc3)cc2)c1)OCc1ccccc1
61 | 196 to 198 °C | COC(=O)Nc1cccc(C)c1COc1cccn2c(C=O)c(C)nc12
62 | 151 to 155 °C | CCOC(=O)C(NC(=O)NN1CC(=O)NC1=O)c1cccs1 (stereo unspecified)
63 | 145 to 147 °C | Cc1oc2cc(C3CC(=O)OC(=O)C3)ccc2c1C
64 | 67 to 68 °C | OCc1ncc(-c2cccs2)s1
65 | 248 to 250 °C | N#Cc1cccc(C[C@H](N)C(=O)O)c1
66 | 162 °C | CCCc1c(OCCCOc2ccccc2)ccc2c1OC(CCC(=O)O)(CCC(=O)O)CC2=O
67 | 101 to 103 °C | Nc1nc(F)c(C(F)(F)F)cc1Cl
68 | 151 °C | COc1ccc(C(=O)Nc2ccc3ccc(Oc4cccc(F)c4)nc3n2)cc1
69 | 87 to 90 °C | O=C(Nc1nc(OCc2ccc(F)cc2)ncc1F)c1snc(Cl)c1Cl
70 | 144 to 147 °C | CCCCc1nc2c(c(C)c(C)n3nnnc23)n1CC(C)(C)N
71 | 232 to 233 °C | ON=Cc1cn2c(n1)COc1ccccc1-2
72 | 270 to 271 °C | CC(CN1CCN(CCc2ccc(C(=O)O)cc2)CC1)Oc1ccc(C(=O)O)cc1 (stereo unspecified)
73 | 143 to 145 °C | CCc1ccc(-c2cn(C)cc(-c3ccccc3)c2=O)cc1
74 | 110 to 112 °C | CC=C(C)C(=O)c1c(O)c2c(c3c(CCC)cc(=O)oc13)OC(C)(C)C=C2
75 | 82 to 84 °C | CCCCCCC(O)CCCCCCCC(COC(C)=O)(COC(C)=O)NC(C)=O (stereo unspecified)

Row | melting point | Compound
76 | 111 to 113 °C | CCOC(=O)c1ccc(NCCOc2ccc(Cl)cc2Cl)cc1
77 | 97 to 98 °C | CS(=O)(=O)c1ccc(C(=O)Cl)c(Cl)c1-c1nccs1
78 | 104 to 106 °C | CCOC(=O)CCCCCn1c(-c2ccccc2)c(-c2ccccc2)n(-c2ccccc2)c1=O
79 | 134 to 136 °C | O=C(O)CCc1cn(Cc2ccc(Cl)cc2Cl)c2ccccc12
80 | 86 to 89 °C | CC(=O)OCc1ccc(N(c2ccccc2)c2ccccc2)cc1
81 | 264 to 266 °C | CC1(C)Oc2ccc(S(=O)(=O)C(F)(F)F)cc2[C@@H](N2Cc3ccc([N+](=O)[O-])cc3C2=O)[C@@H]1O (relative stereo)
82 | 93 °C | Cc1csc2ccc3[nH]c4c(c3c12)CN(Cc1ccccc1)CC4
83 | 109 °C | N#Cc1c(CNC(=O)C2(S(=O)(=O)c3ccc(Cl)cc3)CCCC2)nn(-c2ccccc2Cl)c1-c1ccc(Cl)cc1
84 | 92 to 96 °C | OCc1ccccc1OCc1ncc2ccccc2n1
85 | 144 to 145 °C | C/C=C(/C)c1ccc2c(c1)C(=O)N(c1ccc3c(ccn3C)c1)C2
86 | 120 °C | CC(C)(C)c1ccccc1-n1cnnc1C(F)(F)F
87 | 128 to 130 °C | Nc1ncc(Sc2ncccc2O)s1
88 | 127 to 129 °C | C=C(C#N)CN1CCC(C(N)=O)CC1
89 | 57 to 61 °C | CCCCCCCCN=C1SC(=CC(=O)O)C(=O)N1CCCCCCCC
90 | 107 °C | COC(=O)C1Oc2ccc(C3CCCCC3)cc2C(C)(c2ccccc2)O1 (stereo unspecified)
91 | 90 to 92 °C | CCOC(=O)C=Cc1cc(OCc2ccccc2)ccc1-c1ccc(-c2cccc(C)c2)c(C=O)c1
92 | 82.5 to 84.5 °C | COC(=O)c1ccc(Cl)cc1OS(C)(=O)=O
93 | 105 to 108 °C | OC1c2ccc(Cl)cc2OCc2cccnc21 (stereo unspecified)
94 | 105 to 108 °C | Cn1nc(C(F)(F)F)c(CS(=O)(=O)C2=NOC(C)(C)C2)c1C#N
95 | 103 °C | O=c1ncc(F)cn1COCc1ccc(Cl)cc1
96 | 208 to 212 °C | CC(C)N1CCN(S(=O)(=O)c2ccc(NC(=O)Nc3ccc(C(F)(F)F)cc3)cc2)CC1
97 | > 300 °C | O=S(=O)(O)c1cncc(Br)c1
98 | 167 °C | CC(C)(COc1c(-c2ccccc2)c(=O)oc2ccccc12)CN1CCOCC1

Row | Compound | melting point
99 | CCS(=O)c1c(C#N)nn(-c2c(Cl)cc(C(F)(F)F)cc2Cl)c1NCCSC (stereo unspecified) | 111 to 113 °C
100 | OC1(C#CC2(F)C=CC(c3ccccc3)=CC2)CN2CCC1CC2 (stereo unspecified) | 232 to 233 °C
101 | NC1CC(c2c[nH]c3ccc(CC4COC(=O)N4)cc23)C1 (stereo unspecified) | 95 to 100 °C
